According to a melting point compilation (Tetko et al.; mined from patent text by program, amines drawn as free bases though some values may be those of a salt):

SMILES	melting point
COc1ccnc(C(=O)N[C@H]2COC(=O)[C@H](CCOC(=O)c3ccccc3)[C@@H](OC(=O)C(C)C)[C@H](C)OC2=O)c1OCOC(=O)C(C)C	48 to 50 °C
CC(C)c1nn(-c2ccc(F)cn2)cc1CCCO	78 to 79 °C
CCCCNC(=O)NS(=O)(=O)c1cccc2c1CCCC2	173 to 175 °C
O=C(O)c1ccc(Oc2ccc(Oc3ccc(C(=O)O)c(C(=O)O)c3)c(P(=O)(c3ccccc3)c3ccccc3)c2)cc1C(=O)O	212 to 218 °C
ClCc1cn2cccc(OCc3ccccc3)c2n1	163 °C
Cc1oc(-c2ccccc2)nc1CCOc1ccc(CCC(=O)O)cc1	142 to 144 °C
Nc1cc(Cl)nc(C(=O)NOCc2ccc(F)cc2)c1Cl	209 to 211 °C
O=C(O)COc1cccc2c1CCc1sc(S(=O)(=O)CCC(c3ccccc3)c3ccccc3)nc1-2	175 to 176 °C
CC1=CC(c2ccccc2[N+](=O)[O-])C=C(CN2C(=O)c3ccccc3C2=O)N1 (centres undefined)	137 to 138 °C
c1cc(Cn2ccnc2)c2nccnc2c1	121 °C
CC(C)(C)OC(=O)N1CCc2cccc([N+](=O)[O-])c2CC1	85 to 88 °C
O=CC(=Cc1ccccc1Br)C(C=O)=Cc1ccccc1Br	194 to 195 °C
CCCCCCCCn1nc(C)c(N=Nc2c(O)cc(S(=O)(=O)N(CC)CC)c3ccccc23)c1O	122 to 123 °C
CCCN(C(=O)COc1c(Cl)cccc1Cl)C1CCc2c(ccc(O)c2O)C1 (centres undefined)	157 to 159 °C
CCCC(=NOCC)C1=C(O)CC(c2ccc(C=O)cc2)CC1=O (centres undefined)	81 to 82 °C
Cn1ccc(-c2ccc(C(=O)N3Cc4cccn4Cc4ccccc43)c(Cl)c2)n1	148 to 150 °C
CCCn1c(COCC)nc2c(N)nc3ccc(OC4CCNCC4)cc3c21	176 to 178 °C
O=c1[nH]c2cc3ccccc3cc2[nH]c1=O	> 250 °C
O=C(NCSc1ncnc2nc[nH]c12)c1ccccc1	197 to 200 °C
Cc1ccc(S(=O)(=O)C(CCl)Sc2cccc(C)c2)cc1 (centres undefined)	80 to 97 °C
O=C(O)c1cccc(C2Oc3ccccc3C(O)=C2Cc2ccccc2)c1 (centres undefined)	210 to 212 °C
CCNC(=O)CNC(=S)c1cccnc1	136 to 138 °C
COc1ccc(-c2cccc3c2OC(COS(=O)(=O)c2ccc(C)cc2)C3)cc1 (centres undefined)	116 to 117 °C
COc1ccc(OC)c(S(=O)(=O)c2ccc(Cl)cc2NC(=O)N[C@@H](Cc2ccc(NC(=O)c3c(Cl)cncc3Cl)cc2)C(=O)O)c1	168 °C
CCSc1nc2c(C(=O)OC)sc(-c3ccccc3)c2[nH]1	214 to 215 °C

SMILES	melting point
O=C1c2ccccc2CCN1O	95 to 96 °C
c1ccc(COc2cccc3c2nc2n3CCCO2)cc1	183 to 184 °C
COc1cc(Nc2nccc(Nc3ccc(O)cc3)n2)cc(OC)c1OC	112 to 115 °C
C[C@@H](Cn1ncc2ccc3c(c21)C[C@@H](OCC(=O)OC(C)(C)C)CO3)N=[N+]=[N-]	77 to 78 °C
O=c1cc(-c2cccs2)c2ccccc2[nH]1	262 to 264 °C
Cc1c2c(c(C)n1CCCN(C)C)C(C)(C#N)CC2(C)C (centres undefined)	90.5 to 91 °C
COc1cc2c(cc1OC)CN(CCCc1ccc(NC(=O)c3cc4ccccc4cn3)cc1)CC2	146 °C
SC1CCn2c(CCc3ccccc3)nc3cccc1c32 (centres undefined)	75.7 to 78.8 °C
CC(C)c1cc2cc([N+](=O)[O-])ccc2o1	73 °C
COc1cc(Nc2c(C#N)cnc3cc4cc(OC)c(OCCN5CCOCC5)cc4cc23)c(Cl)cc1C	240 to 241 °C
CC(=S)OC1CCN(C(=O)OCc2ccc([N+](=O)[O-])cc2)CC1	106 to 107 °C
O=C(O)/C=C/C=C(c1ccccc1C(F)(F)F)c1ccccc1C(F)(F)F	162 to 164 °C
Cn1cnc(COc2nn3c(-c4ccccc4)nnc3cc2N2CCOCC2)n1	205 to 206 °C
COc1cc(CCC(=O)CC(=O)c2ccc3ccccc3c2)ccc1O	101 to 102 °C
CNC(=O)[C@@H]1C[C@@H](OC)CN1S(=O)(=O)c1ccc(Cl)c(COc2cccc3c2NC(C)(C)C=C3n2cncn2)c1Cl	73 °C
O=C(O)[C@H](Cc1cccc(OC(F)(F)C(F)F)c1)[C@@H](O)c1ccnc(F)c1 (racemic)	134 to 135 °C
CS(=O)(=O)c1ccc(-c2c(-c3ccc(F)cc3)nn3c(-c4ccc(F)cc4)coc23)cc1	289 to 291 °C
O=C(N[C@@H]1C[C@H]1c1ccccc1)c1ccc2cnccc2n1 (relative stereo)	123 to 124 °C
COCc1c(S(C)(=O)=O)ccc(C(=O)C2SCCCC2=O)c1C (centres undefined)	152 to 154 °C
CCOC(=O)Nc1c(C)c(C)c2c(c1C)CC(C)(C)O2	102 to 104 °C
Nc1ccccc1C(=O)Nc1nnn[nH]1	253 to 254 °C
CCOCc1nnc2n1-c1ccc(Cl)cc1C(c1ccccc1)=NC2	168 to 170 °C
COc1cc(C(=O)N(C(C)C)C2CCCCC2)ccc1Cn1c(CO)nc2ncccc21	117 to 119 °C
N#Cc1ccc2oc(CCc3ccc(C(=O)Nc4cnccn4)cc3)cc2c1	183 to 185 °C
O=C(CCCCCN1CCN(c2cccc(C(F)(F)F)c2)CC1)N1Cc2ccccc2C1	100 to 105 °C

SMILES	melting point
CCn1cc(C(=O)NCCc2ccncc2)c(=O)c2cnc(N3CCCC3)nc21	175 to 177 °C
CCCC(Cc1ccc(OCCN2CCOCC2)cc1)(C(=O)NO)S(=O)(=O)c1ccc(OC)cc1 (centres undefined)	101 °C
COCCOCc1c(F)cccc1-c1ccc2nc(-c3ccc(Cl)cc3)cn2c1	104 to 105 °C
N#Cc1nn(-c2c(Cl)cc(C(F)(F)F)cc2Cl)cc1C=NO	170 °C
C(=C1CCNCC1)c1ccc(C2=NCCO2)cc1	110 °C
O=C1Cc2c(cccc2OCCNCc2ccccc2)N1	145 to 146 °C
CSC1C(=O)Nc2c(C(=O)c3ccc(F)cc3)cccc21 (centres undefined)	165 to 168 °C
CS(=O)(=O)Nc1ccc(-c2ccc(C(=O)O)c(=O)[nH]2)cc1	> 320 °C
O=C1N(Cc2ccccc2)OCCN1c1ccc(Cl)c(Cl)c1	76 °C
CCOC(=O)c1sc2ccc(O)c(C=Nc3ccc(OC)cc3)c2c1Cl	162 to 163 °C
c1csc(N=C2SC[C@@H]3Cc4ccccc4CN23)c1	112 °C
O=C(O)CCCCCCc1cccc(-c2nc(=O)c3ccccc3s2)n1	149 to 151 °C
Clc1ccc(C#Cc2ccc(-c3ccccc3)s2)cc1	141 to 145 °C
COc1cc2ccnc(N3CCN(c4ccc5c(c4)CCC(=O)N5)CC3)c2cc1OC	235 to 240 °C
NC(=O)/C=C/c1ccc(C(c2cc(F)ccc2F)S(=O)(=O)c2ccc(Cl)cc2)nc1 (centres undefined)	219 to 220 °C
O=C(O)c1ccc2ccc(S)cc2c1	211 to 216 °C
CC12CCC(C(=O)CC1=O)C2(C)C (centres undefined)	220 °C
Cn1c(COc2ccc(CC3SC(=O)NC3=O)cc2)nc2ccc(Oc3ccc(NS(C)(=O)=O)cc3)cc21 (centres undefined)	225 to 226 °C
CN1C(=O)CCC2=C1CCc1ccc(F)cc12	122 °C
CN(C)n1c(NN)nc2ccccc2c1=O	125 to 127 °C
C#CCNC(=O)c1cccc(F)c1Nc1nc(Nc2ccc3c(c2)N(C(C)=O)CCCC3)ncc1Cl	210 to 214 °C
Cc1nsc2cc(N)c([N+](=O)[O-])cc12	189 to 191 °C
O=C1CCN(Cc2cc([N+](=O)[O-])ccc2O)CC1C(c1ccc(F)cc1)c1ccc(F)cc1 (centres undefined)	169 to 170 °C
COC(=O)c1ccc(C(=O)c2ccc3c(c2)C2(C)C4(C)CCC(C4)C2(C)O3)cc1 (centres undefined)	150 °C
NS(=O)(=O)c1ccc(-n2nc(CNC(=O)NO)cc2-c2ccc(Cl)cc2)cc1	216 to 218 °C

SMILES	melting point
Cc1ccc(NC(=O)c2ccc3ncccc3c2)cc1NC(=O)c1ccc(OCc2ccccc2)cc1	227 to 228 °C
COc1ccccc1CN[C@H]1CCCN[C@H]1c1ccc2ccccc2c1 (relative stereo)	> 250 °C
CC(C)C[C@@H](C(=O)NCCCC(c1ccc(F)cc1)c1ccc(F)cc1)N1CCCCC1	52 to 70 °C
CN(C)c1ccc(-c2cccc3c2C2(COc4cc5c(cc42)OCO5)C(=O)N3Cc2ccc(C(F)(F)F)o2)cn1 (centres undefined)	174 to 176 °C
CCCCCCCCCCCCc1ccc(S(=O)(=O)Nc2nnc(C(C)(C)C)s2)cc1	117 to 118 °C
CC1(CC(=O)O)CCCCC1=O (centres undefined)	87 to 90 °C
CCCCCCCCCCCCCCCCCC(c1ccc(O)cc1)c1ccc(O)cc1	88 to 90 °C
CC(C)CNc1nc(-c2ccccc2)cn2ccnc12	81 °C
Fc1ccc2nc(CBr)ccc2c1	90 to 92 °C
CCc1cn2ccccc2c1S(=O)(=O)c1ccc(OCCCBr)cc1	136 °C
Cc1ccc(C(=O)Nc2cn(C3CCCCO3)nc2C(=O)NCCO)cn1 (centres undefined)	140 °C
COc1cccc2c1CCC(C#N)C2=O (centres undefined)	120 to 122 °C
Cc1cc(-c2ccc(C#N)cc2)c(C)n1Cc1cnc(Cl)c(COC(=O)CCC(=O)O)c1	201 to 204 °C
CCP(=O)(O)CCCN	233 to 239 °C
O=c1cc(Sc2ccccc2)cc[nH]1	202 °C
CC(=O)Nc1cccc(-c2ccnc3c(C(=O)c4ccco4)cnn23)c1	195 to 196 °C
O=C(Nc1ccc(Oc2ccccc2F)nc1)N1CCc2ccccc2CC1	170 to 172 °C
COc1ccc([N+](=O)[O-])cc1CN1CCNCCNCCNCC1	154 to 156 °C
CCOC(=O)c1oc2cc(O)ccc2c(=O)c1C(N)=O	> 320 °C
CC1(C)OCC(Cc2ccc(C=Cc3ccc([N+](=O)[O-])cc3)cc2)O1 (centres undefined)	146 to 147 °C
Cn1cc(C(=O)NCc2ccc(Cl)cc2)c(=O)c2cc(CN3CCOCC3)cc(C#CCn3ccnc3)c21	178 to 180 °C
CCCCCCCCCCCCCCCCCC(=O)NCNC(=O)CCSc1ccc(O)cc1	172 °C
CCOC(=O)[C@H](Cc1ccc(-c2c(OC)cc(CO)cc2OC)cc1)NC(=O)c1c(F)cccc1F	70 to 72 °C
O=C(Nc1ccc2ccc(Cl)nc2n1)c1ccc(Cl)c(Cl)c1	230 °C
